Values after ≈ are worked out from the molar mass of the structure shown. Active and inactive are the calls of the source. The rule behind the calls is not given here.
Columns and labels:
[1] = tested on: HCT-15; assay: Cytotoxicity against human HCT15 cells assessed as reduction in cell viability after 48 hrs by MTT assay; type: functional, cell-based; settings: HCT-15, 48 h
[2] = target: Serine/threonine-protein kinase pim-1 (Homo sapiens) (UniProt P11309); assay: Inhibition of PIM1 (unknown origin) at 1 uM
[3] = target: Mitogen-activated protein kinase 3 (Homo sapiens) (UniProt P27361); assay: Inhibition of ERK1 (unknown origin) at 1 uM
[4] = target: Hepatocyte growth factor receptor (Homo sapiens) (UniProt P08581); assay: Inhibition of c-MET (unknown origin) at 1 uM
[5] = target: Tyrosine-protein kinase ABL1 (Homo sapiens) (UniProt P00519); assay: Inhibition of ABL (unknown origin) at 1 uM
[6] = target: Protein kinase C alpha type (Homo sapiens) (UniProt P17252); assay: Inhibition of PKCalpha (unknown origin) at 1 uM
[7] = target: Tyrosine-protein kinase CSK (Homo sapiens) (UniProt P41240); assay: Inhibition of CSK (unknown origin) at 1 uM
[8] = target: Cyclin-dependent kinase 4/cyclin D1 (Homo sapiens) (UniProt P11802+P24385); assay: Inhibition of CDK4/Cyclin D1 (unknown origin) at 1 uM; type: protein-complex assay
[9] = tested on: HCT-116; assay: Inhibition of cytokinesis in human HCT116 cells at 100 nM after 24 hrs by propidium iodide/RNase staining-based flow cytometric analysis; type: functional, cell-based
[10] = target: Serine/threonine-protein kinase PAK 1 (Homo sapiens) (UniProt Q13153); assay: Inhibition of PAK1 (unknown origin) at 1 uM
[11] = target: Fibroblast growth factor receptor 3 (Homo sapiens) (UniProt P22607); assay: Inhibition of FGFR3 (unknown origin) at 1 uM
[12] = target: Tyrosine-protein kinase JAK3 (Homo sapiens) (UniProt P52333); assay: Inhibition of JAK3 (unknown origin) at 1 uM
[13] = tested on: HCT-116; assay: Cytotoxicity against human HCT116 cells assessed as reduction in cell viability after 48 hrs by MTT assay; type: functional, cell-based; settings: HCT-116, 48 h
[14] = target: T1, Aurora kinase B (Homo sapiens, UniProt Q96GD4); assay: Inhibition of Aurora B phosphorylation at Thr232 residue in human HCT116 cells over 100 nM after 3 hrs by Western blot method; type: cell-based
[15] = target: CDK2/Cyclin A2 (Homo sapiens) (UniProt P24941+P20248); assay: Inhibition of CDK2/cyclin A (unknown origin) at 1 uM; type: protein-complex assay
[16] = Solubility of the compound in phosphate buffer of pH 2 after 24 hrs by RP-HPLC analysis; type: physicochemical
[17] = target: High affinity nerve growth factor receptor (Homo sapiens) (UniProt P04629); assay: Inhibition of TrkA (unknown origin) at 1 uM
[18] = target: Receptor-type tyrosine-protein kinase FLT3 (Homo sapiens) (UniProt P36888); assay: Inhibition of FLT3 (unknown origin) at 1 uM
[19] = target: Insulin receptor (Homo sapiens) (UniProt P06213); assay: Inhibition of INSR (unknown origin) at 1 uM
[20] = target: T1, Aurora kinase B; assay: Inhibition of recombinant Aurora B (unknown origin) using TAMRA-PKAtide as substrate after 1 hr by fluorescence polarization assay
[21] = target: Interleukin-1 receptor-associated kinase 4 (Homo sapiens) (UniProt Q9NWZ3); assay: Inhibition of IRAK4 (unknown origin) at 1 uM
[22] = target: Tyrosine-protein kinase SYK (Homo sapiens) (UniProt P43405); assay: Inhibition of SYK (unknown origin) at 1 uM
[23] = target: Mast/stem cell growth factor receptor Kit (Homo sapiens) (UniProt P10721); assay: Inhibition of c-KIT (unknown origin) at 1 uM
[24] = target: Serine/threonine-protein kinase PAK 4 (Homo sapiens) (UniProt O96013); assay: Inhibition of PAK4 (unknown origin) at 1 uM
[25] = target: Death-associated protein kinase 3 (Homo sapiens) (UniProt O43293); assay: Inhibition of ZIPK (unknown origin) at 1 uM
[26] = target: T2, Aurora kinase A (Homo sapiens, UniProt O14965); assay: Inhibition of recombinant Aurora A (unknown origin) using TAMRA-PKAtide as substrate after 30 mins by fluorescence polarization assay
T2 sequence (O14965 whole entry): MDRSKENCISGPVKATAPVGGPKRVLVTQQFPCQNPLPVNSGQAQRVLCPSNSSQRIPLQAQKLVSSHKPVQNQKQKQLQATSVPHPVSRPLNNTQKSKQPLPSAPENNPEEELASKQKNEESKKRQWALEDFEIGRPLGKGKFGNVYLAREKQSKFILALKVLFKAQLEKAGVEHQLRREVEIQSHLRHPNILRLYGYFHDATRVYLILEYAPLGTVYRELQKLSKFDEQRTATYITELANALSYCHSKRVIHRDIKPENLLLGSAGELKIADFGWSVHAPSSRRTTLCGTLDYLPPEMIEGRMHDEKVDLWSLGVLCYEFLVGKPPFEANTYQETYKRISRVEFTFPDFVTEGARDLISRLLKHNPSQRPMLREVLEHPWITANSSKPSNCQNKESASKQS

[27] = target: Epithelial discoidin domain-containing receptor 1 (Homo sapiens) (UniProt Q08345); assay: Inhibition of DDR1 (unknown origin) at 1 uM
[28] = target: Proto-oncogene tyrosine-protein kinase Src (Homo sapiens) (UniProt P12931); assay: Inhibition of c-Src (unknown origin) at 1 uM
[29] = Solubility of the compound in phosphate buffer of pH 7.4 after 24 hrs by RP-HPLC analysis; type: physicochemical; settings: phosphate buffer, pH 7.4
[30] = target: Angiopoietin-1 receptor (Homo sapiens) (UniProt Q02763); assay: Inhibition of TIE2 (unknown origin) at 1 uM
[31] = target: Tyrosine-protein kinase receptor UFO (Homo sapiens) (UniProt P30530); assay: Inhibition of AXL (unknown origin) at 1 uM
[32] = tested on: HCT-116; assay: Induction of apoptosis in human HCT116 cells at 100 nM after 72 hrs by Annexin V-FITC staining-based flow cytometric analysis; type: functional, cell-based
[33] = tested on: HCT-116; assay: Induction of apoptosis in human HCT116 cells at 1 uM after 72 hrs by Annexin V-FITC/propidium iodide staining-based flow cytometric analysis; type: functional, cell-based
[34] = target: Inhibitor of nuclear factor kappa-B kinase subunit beta (Homo sapiens) (UniProt O14920); assay: Inhibition of IKKbeta (unknown origin) at 1 uM
[35] = target: Vascular endothelial growth factor receptor 2 (Homo sapiens) (UniProt P35968); assay: Inhibition of VEGFR2 (unknown origin) at 1 uM
[36] = tested on: HCT-116; assay: Inhibition of cytokinesis in human HCT116 cells at 1 uM after 24 hrs by propidium iodide/RNase staining-based flow cytometric analysis; type: functional, cell-based
[37] = target: Serine/threonine-protein kinase Chk1 (Homo sapiens) (UniProt O14757); assay: Inhibition of CHK1 (unknown origin) at 1 uM
[38] = target: Rho-associated protein kinase 2 (Homo sapiens) (UniProt O75116); assay: Inhibition of ROCK2 (unknown origin) at 1 uM
[39] = target: Platelet-derived growth factor receptor beta (Homo sapiens) (UniProt P09619); assay: Inhibition of PDGFRbeta (unknown origin) at 1 uM
[40] = target: Proto-oncogene tyrosine-protein kinase receptor Ret (Homo sapiens) (UniProt P07949); assay: Inhibition of RET (unknown origin) at 1 uM
[41] = target: Serine/threonine-protein kinase B-raf (Homo sapiens) (UniProt P15056); assay: Inhibition of BRAF (unknown origin) at 1 uM
[42] = target: Serine/threonine-protein kinase mTOR (Homo sapiens) (UniProt P42345); assay: Inhibition of mTOR (unknown origin) at 1 uM

T1 sequence (Q96GD4 whole entry): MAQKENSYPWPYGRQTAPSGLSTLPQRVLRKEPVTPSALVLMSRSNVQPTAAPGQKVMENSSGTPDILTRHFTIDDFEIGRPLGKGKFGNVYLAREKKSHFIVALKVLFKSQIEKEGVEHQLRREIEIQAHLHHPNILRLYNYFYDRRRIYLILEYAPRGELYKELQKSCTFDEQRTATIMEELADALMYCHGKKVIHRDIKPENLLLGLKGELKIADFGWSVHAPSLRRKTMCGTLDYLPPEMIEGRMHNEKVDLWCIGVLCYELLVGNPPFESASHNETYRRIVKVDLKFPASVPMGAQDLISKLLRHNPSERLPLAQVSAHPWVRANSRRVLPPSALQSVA
Insulin receptor (Homo sapiens), sequence (P06213 28-758 limits assumed): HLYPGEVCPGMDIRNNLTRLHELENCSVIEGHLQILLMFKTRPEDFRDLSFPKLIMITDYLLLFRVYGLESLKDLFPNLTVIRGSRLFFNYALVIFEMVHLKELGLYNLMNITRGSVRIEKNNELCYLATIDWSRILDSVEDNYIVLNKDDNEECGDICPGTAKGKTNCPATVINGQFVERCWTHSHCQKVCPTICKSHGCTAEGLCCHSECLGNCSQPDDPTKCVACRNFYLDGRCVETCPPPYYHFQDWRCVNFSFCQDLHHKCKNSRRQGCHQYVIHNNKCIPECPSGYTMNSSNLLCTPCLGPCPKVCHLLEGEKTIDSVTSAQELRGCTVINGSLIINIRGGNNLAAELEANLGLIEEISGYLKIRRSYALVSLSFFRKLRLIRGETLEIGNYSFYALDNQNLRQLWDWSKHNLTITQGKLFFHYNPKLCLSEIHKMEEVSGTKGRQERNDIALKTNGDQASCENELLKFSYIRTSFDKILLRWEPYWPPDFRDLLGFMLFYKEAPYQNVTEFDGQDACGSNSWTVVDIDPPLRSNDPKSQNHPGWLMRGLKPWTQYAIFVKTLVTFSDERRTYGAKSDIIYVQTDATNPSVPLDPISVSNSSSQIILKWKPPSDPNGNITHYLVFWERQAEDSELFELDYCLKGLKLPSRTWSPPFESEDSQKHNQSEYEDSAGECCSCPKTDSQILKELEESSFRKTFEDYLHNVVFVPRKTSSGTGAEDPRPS
Insulin receptor (Homo sapiens), sequence (P06213 763-1382 limits assumed): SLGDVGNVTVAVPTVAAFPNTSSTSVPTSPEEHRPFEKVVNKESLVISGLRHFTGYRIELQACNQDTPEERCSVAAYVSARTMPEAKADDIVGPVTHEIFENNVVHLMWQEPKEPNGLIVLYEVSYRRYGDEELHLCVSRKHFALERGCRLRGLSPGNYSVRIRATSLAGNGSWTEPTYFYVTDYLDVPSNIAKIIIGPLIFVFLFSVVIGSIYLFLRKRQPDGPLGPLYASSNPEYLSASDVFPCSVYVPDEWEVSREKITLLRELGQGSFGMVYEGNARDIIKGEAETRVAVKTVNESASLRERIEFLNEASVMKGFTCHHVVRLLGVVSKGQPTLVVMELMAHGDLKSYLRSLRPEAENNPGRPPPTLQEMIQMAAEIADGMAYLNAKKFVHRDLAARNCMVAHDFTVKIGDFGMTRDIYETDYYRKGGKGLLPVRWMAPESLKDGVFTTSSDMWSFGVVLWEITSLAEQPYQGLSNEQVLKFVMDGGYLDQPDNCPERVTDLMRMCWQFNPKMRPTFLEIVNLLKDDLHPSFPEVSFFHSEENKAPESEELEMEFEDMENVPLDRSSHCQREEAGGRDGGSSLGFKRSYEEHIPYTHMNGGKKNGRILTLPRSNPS
Mast/stem cell growth factor receptor Kit (Homo sapiens), sequence (P10721 whole entry): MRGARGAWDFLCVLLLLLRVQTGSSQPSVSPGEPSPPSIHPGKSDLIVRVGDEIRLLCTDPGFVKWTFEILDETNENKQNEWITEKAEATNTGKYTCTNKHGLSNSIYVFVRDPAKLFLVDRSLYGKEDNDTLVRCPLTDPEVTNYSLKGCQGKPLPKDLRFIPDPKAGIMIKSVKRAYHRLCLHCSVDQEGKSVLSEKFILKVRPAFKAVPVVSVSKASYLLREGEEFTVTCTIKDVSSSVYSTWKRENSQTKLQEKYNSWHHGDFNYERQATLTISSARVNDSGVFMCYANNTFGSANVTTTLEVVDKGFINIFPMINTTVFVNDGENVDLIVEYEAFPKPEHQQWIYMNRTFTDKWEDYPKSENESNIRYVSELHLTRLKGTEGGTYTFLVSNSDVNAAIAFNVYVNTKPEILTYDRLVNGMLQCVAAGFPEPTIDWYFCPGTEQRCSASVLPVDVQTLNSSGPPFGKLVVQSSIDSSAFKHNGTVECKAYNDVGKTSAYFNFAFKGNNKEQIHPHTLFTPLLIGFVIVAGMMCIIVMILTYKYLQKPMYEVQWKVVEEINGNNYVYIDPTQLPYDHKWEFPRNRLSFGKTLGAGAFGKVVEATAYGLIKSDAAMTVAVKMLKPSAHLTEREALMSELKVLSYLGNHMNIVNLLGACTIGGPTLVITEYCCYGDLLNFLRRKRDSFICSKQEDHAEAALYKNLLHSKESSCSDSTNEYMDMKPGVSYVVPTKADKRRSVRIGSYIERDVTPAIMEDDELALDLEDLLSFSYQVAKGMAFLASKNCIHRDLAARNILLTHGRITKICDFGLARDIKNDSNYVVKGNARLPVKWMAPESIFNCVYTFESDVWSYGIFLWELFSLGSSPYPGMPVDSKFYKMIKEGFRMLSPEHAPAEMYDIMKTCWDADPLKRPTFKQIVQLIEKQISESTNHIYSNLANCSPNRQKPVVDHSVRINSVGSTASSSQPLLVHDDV
Epithelial discoidin domain-containing receptor 1 (Homo sapiens), sequence (Q08345 whole entry, the tested form may be a part): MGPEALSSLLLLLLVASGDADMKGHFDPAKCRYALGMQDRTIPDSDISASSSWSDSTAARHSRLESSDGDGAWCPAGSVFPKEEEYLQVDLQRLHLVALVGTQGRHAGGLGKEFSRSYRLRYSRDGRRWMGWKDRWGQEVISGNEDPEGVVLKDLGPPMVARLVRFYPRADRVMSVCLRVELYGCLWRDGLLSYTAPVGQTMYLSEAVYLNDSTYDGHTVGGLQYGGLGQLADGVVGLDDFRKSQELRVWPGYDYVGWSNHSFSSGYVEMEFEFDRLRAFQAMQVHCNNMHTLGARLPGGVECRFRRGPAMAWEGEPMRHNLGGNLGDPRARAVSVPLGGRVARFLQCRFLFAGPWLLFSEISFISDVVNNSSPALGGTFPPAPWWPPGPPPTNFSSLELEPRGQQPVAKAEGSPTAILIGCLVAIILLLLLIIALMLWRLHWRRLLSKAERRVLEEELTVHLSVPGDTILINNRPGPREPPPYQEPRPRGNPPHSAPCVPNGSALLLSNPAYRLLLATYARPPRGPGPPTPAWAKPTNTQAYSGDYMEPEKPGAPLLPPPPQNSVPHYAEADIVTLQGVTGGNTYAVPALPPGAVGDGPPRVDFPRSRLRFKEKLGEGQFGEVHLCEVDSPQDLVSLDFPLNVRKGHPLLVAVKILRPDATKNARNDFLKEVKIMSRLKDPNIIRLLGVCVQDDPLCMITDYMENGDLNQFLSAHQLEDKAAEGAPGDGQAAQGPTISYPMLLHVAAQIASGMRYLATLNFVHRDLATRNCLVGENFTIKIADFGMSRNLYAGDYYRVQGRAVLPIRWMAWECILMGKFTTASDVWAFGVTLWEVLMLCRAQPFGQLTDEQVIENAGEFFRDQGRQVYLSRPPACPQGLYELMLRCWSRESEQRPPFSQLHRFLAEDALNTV
High affinity nerve growth factor receptor (Homo sapiens), sequence (P04629 33-796 limits assumed): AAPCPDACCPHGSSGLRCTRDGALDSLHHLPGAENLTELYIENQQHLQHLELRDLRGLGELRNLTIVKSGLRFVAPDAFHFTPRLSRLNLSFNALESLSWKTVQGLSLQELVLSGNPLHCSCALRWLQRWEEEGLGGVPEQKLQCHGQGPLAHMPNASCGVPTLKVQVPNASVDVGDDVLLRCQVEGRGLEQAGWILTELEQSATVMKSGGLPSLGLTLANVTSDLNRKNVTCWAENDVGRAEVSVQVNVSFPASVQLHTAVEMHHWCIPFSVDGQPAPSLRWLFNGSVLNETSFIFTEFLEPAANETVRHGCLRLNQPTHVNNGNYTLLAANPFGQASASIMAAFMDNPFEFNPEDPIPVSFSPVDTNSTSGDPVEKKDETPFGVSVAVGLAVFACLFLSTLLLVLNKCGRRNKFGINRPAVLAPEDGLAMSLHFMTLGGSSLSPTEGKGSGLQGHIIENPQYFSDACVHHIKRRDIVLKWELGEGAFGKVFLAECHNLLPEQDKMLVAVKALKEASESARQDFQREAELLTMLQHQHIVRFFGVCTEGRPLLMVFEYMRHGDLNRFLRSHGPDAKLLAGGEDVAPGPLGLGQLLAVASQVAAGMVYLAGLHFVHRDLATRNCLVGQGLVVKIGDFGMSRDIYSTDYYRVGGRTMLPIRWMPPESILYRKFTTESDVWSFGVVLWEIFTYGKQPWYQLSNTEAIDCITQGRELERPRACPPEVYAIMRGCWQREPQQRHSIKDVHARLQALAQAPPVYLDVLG
Death-associated protein kinase 3 (Homo sapiens), sequence (O43293 whole entry, looked up): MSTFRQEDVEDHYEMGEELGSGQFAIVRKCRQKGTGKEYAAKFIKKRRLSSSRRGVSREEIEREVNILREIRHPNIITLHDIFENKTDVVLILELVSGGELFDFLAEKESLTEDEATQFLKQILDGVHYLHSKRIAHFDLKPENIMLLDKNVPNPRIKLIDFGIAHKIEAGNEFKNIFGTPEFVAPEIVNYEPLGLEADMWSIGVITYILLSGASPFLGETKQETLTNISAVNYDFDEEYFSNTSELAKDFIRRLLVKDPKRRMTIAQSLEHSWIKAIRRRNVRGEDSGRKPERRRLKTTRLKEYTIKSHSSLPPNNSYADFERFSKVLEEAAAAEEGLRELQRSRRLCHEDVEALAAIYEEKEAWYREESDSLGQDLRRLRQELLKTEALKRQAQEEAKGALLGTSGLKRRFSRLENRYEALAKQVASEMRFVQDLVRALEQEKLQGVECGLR

inhibition [2]: 41.6% | inhibition [3]: 17.6% | inhibition [4]: 2.76% | inhibition [5]: 88.8% | inhibition [6]: 17.9% | inhibition [7]: 19.5% | inhibition [8]: 27% | inhibition [10]: 5.28% | inhibition [11]: 14.4% | inhibition [12]: 54.6% | inhibition [14]: Active | inhibition [15]: 22.8% | solubility at 24 h [16]: 8 µM (≈ 3.31 µg/mL) | inhibition [17]: 46.9% | inhibition [18]: 46.6% | inhibition [19]: 3% | IC50 [20]: 23 nM | inhibition [21]: 8.14% | inhibition [22]: 51.1% | inhibition [23]: 28.9% | inhibition [24]: 11.2% | IC50 [26]: 9 nM | inhibition [27]: 75.9% | inhibition [28]: 94.4% | solubility at 24 h [29]: 13.1 µM (≈ 5.42 µg/mL) | inhibition [30]: 0.75% | inhibition [31]: 37.2% | inhibition [34]: 30.7% | inhibition [35]: 68.2% | inhibition [37]: 16.4% | inhibition [38]: 15.7% | inhibition [39]: 61.3% | inhibition [40]: 97.2% | inhibition [41]: -0.3% | inhibition [42]: 3.66%
Compound: CNC(=O)Nc1sc2c(C(C)C)cc(NS(=O)(=O)N(C)C)cc2c1C(N)=O
IC50 [1]: 1600 nM | Cytokinesis inhibition (active/inactive call) [9]: Active | IC50 [13]: 300 nM | inhibition [25]: 39.6% | Activity [32]: inactive | Activity [33]: inactive | Cytokinesis inhibition (active/inactive call) [36]: Active

— ChEMBL document CHEMBL4265887 (Bioorg Med Chem Lett, 2018)
